Read-outs that look alike come from different tables or passages of the source. Marks after values point to notes of the source that are not given here. Ends that are not written are not given here. Peptide text beside a SMILES is read from it. * marks the point of attachment. RG108 = O=C1c2ccccc2C(=O)N1[C@@H](Cc1c[nH]c2ccccc12)C(=O)*
Key:
THP1-Dual monocytes [1] = assay: THP1-Dual differentiation assay, immX3 peptide plus helper or inhibitor molecule; type: cell-based, human; conditions: immX3 peptide (330 nM) in all samples plus helper at the concentration given; immX3 with buffer = 100.0
Method: (§1) Mammalian cell differentiation assays using THP1-Dual monocytes reporter cell line (Invivogen Inc, San Diego, CA) seeded at 2×10e5 cells per well in 96-well plates and cultured at 37 degrees C. in RPMI-1640 growth medium plus 10% fetal bovine serum and 1% penicillin/streptomycin, then treated for 24 hours with either 100 ng/ml Phorbol 12-myristate 13-acetate (PMA protocol; Cayman Chemical Company, Ann Arbor, MI) or a mixture of IL-4 (100 ng/ml), GM-CSF (100 ng/ml), TNF-alpha (20 ng/ml) and ionomycin (200 ng/ml) (Cytokine protocol; Peprotech, Rocky Hill, NJ). Peptide (330 nM) was then added, and incubation continued for an additional 24 hours. Culture supernatants were then assayed for CCL22. Plates with adherent cells were washed with PBS and assayed for immunoreactivity of surface markers such as CD169, Clec9a, Clec12a or MHCII using fuorescent tag- or biotin-labeled anti-human antibodies purchased from Miltenyi Biotec (Auburn, CA) and a relevant secondary detection reagent, or by fluorescence counts.
The THP1-Dual cell differentiation assay was carried out as described above in Example 2, using immX3 peptide (330 nM) in all samples plus the indicated helper or inhibitor molecule. AU=arbitrary ELISA units. **p<0.01.

A375 cells = assay: A375 cell viability (CellTiterGlo); type: cell-based; conditions: 72 hours
Method: Immune modulation functions of immodulin peptides have great potential untility in the field of cancer. A375 cell line was obtained from American Type Culture Collection (ATCC). They were grown in a T-75 flask in DMEM Medium containing 10% fetal bovine serum and penicillin-streptomycin at 37° C. in a humidified, 5% CO2 incubator. Cells (100 µl, 2,000 cells/well) were plated in a 96-well plate and incubated overnight at 37° C. in a humidified, 5% CO2 incubator. Next day, 10 µl/well of compounds were added (quadruplicate wells). After 72 hour incubation with the compound, cell viability was measured in a luminometer after the addition of 100 IL/well CellTiterGlo reagent (Promega Inc, Madison, WI) as recommended by the manufacturer. Anti-cancer activity of immodulin peptides on A375 cells: A 96-well plate was seeded with 2,000 A375 cells per well in DMEM medium containing 10% FBS and PenStrep. After 24 hrs at 37 deg C., compounds and peptides were added (each treatment done in quadruplicate). After a further 72 hours incubation, 100 μL/well of CTG assay reagent purchased from Promega Inc. (Madison, WI) was added. Plate was read after 10 minutes, as recommended by the manufacturer. Peptides were added at 2 uM. The results of this experiment are shown below, expressed as percent survival of A375 cells.

[2] = system: rat scald-endotoxemia model; assay: Experiment 5B rat scald-endotoxemia model; type: in vivo, Sprague Dawley rats; conditions: for Change in body weight (Pct vs Day 1): Day 5; for Respiratory distress (Gp. “S” = 100): Day 8, 4 hours after LPS; for Wet/dry lung weight (corrected for body weight): Day 8, after LPS 2.5 mg/kg ip
Method: Experiment 5B. This study explores the effect of immX extensions on sV-nephrilin (SEQ ID NO:31) vs V-nephrilin, as well as in a longer peptide also containing the immX extension (Traumatin-3N1A: SEQ ID NO:35) on in vivo efficacy in a rat scald-endotoxemia model. Animals were treated with peptides using a widely used protocol previously described (see, for example, U.S. Pat. No. 10,369,191). Adult Sprague Dawley rats of both sexes (250-300 gm, Charles River Laboratories, Wilmington, MA, USA) were injected with peptide plus equimolar ferric iron once daily by subcutaneous bolus injection, days 1-7; Treatment group sizes were (n=6): group S=sham-treated; group B=burn+vehicle; group V=burn+1 mg/kg V-nephrilin (V); group sV=burn+1 mg/kg sV-nephrilin (immX3N1sV); group T=burn+1 mg/kg Traumatin-3N1A. The first dose was administered after completion of the scald procedure. Injection volume was 400 uL. Control animals received the same volume of vehicle. On Day 8, animals received a single intraperitoneal injection of 2.5 mg/kg lipopolysaccharide (LPS; Sigma Cat #L-2880) and animals were then monitored by oximeter (MouseOx, Starr Life Sciences) for 4 hours, when respiratory distress (breath distension*breaths/min) was assessed relative to baseline. This was followed by sacrifice and tissue collection as in the published protocol, except that bronchoalveolar lavage (BAL) was collected and cells were recovered from BAL by centrifugation. These cells were stained with fluorescently-labeled antibodies for flow cytometry in order to ascertain granulocyte counts, as shown below. Results of the peptide comparison are presented in the table below. *p<0.05 vs “B” control. #p<0.05 vs “V” group.

[3] = system: Pancreatic protease Type I; assay: Experiment 5A peptide stability to protease degradation; type: in vitro ADME; conditions: 20 minutes at 37 degrees C, read-out: percentage of surviving peptide after protease treatment
Method: Duplicate wells per dilution point in a 96-well NTA-coated plate (G-Biosciences, St. Louis, MO) charged with ferric chloride were adsorbed with 2 ug imm3N1V (V-nephrilin) or immX3N1 (sV-nephrilin) peptide per well for 30 min at room temperature, washed, then incubated with 100 ul/well of 8 or 2 μg/ml protease (Sigma Catalog #P4630, Pancreatic protease Type I) for 20 minutes at 37 degrees C. Plates were washed with PBS buffer and the remaining peptide bound was measured using an in-house calibrated anti-immodulin ELISA (rabbit polyclonal #2501). The percentages of surviving peptide after 8 or 2 μg/ml protease treatment were, respectively: V-nephrilin (imm3N1V): 57.6±2.3% and 79.0±0.7%; sV-nephrilin (immX3N1): 75.1±2.8% and 90.4±3.4% (p<0.001 at both concentrations). Thus, the immX tripeptide extension at the C-terminus using D-amino acids improved peptide stability to protease degradation.

[4] = Ferric iron-binding assay of biotinylated immodulin peptides; conditions: N-terminally biotinylated peptide, 400 ng per well, 60 min room temperature; immX3AVD = 100
Source text: N-terminally biotinylated versions of the peptides listed below were used in ferric iron-binding assays involving either an Alexa488-labeled streptavidin protocol (Binding Assay 1) or FITC-NTA assay (Binding Assay 2). Fluorescence was standardized to binding with immX3AVD control peptide (100) and the average of multiple experiments using both protocols is shown. P values are shown relative to the control immX3AVD peptide (**<0.05). D-amino acid residues are underlined in the sequences and the extension tripeptide of immX peptides is shown in bold font. Binding Assay 1 was done as follows: NTA coated 96-well plates (G-Biosciences, St. Louis, MO) were charged with ferric chloride and contacted with equimolar biotinylated peptide: streptavidin-A488 complex (400 ng peptide per well) for 60 min at room temperature, washed with phosphate-buffered saline (PBS) and read at 525 nm in a fluorescence counter. Binding Assay 2 was done as follows: Streptavidin coated 96-well plates (G-Biosciences, St. Louis, MO) were contacted with 400 ng peptide per well in PBS buffer for 60 minutes at room temperature, washed in PBS, then contacted with FITC-NTA (TRC, Toronto, Canada) complexed with equimolar ferric chloride (10× molar equivalent per well) for 60 min at room temperature, washed with PBS and read at 525 nm in a fluorescence counter.

THP1-Dual monocytes [5] = assay: THP1-Dual monocyte differentiation assay, PMA protocol; type: cell-based, human; conditions: peptide 330 nM, 24 hours
Method: as §1

[6] = Day 1, burn + 1 mg/kg peptide plus equimolar ferric iron, subcutaneous once daily
[7] = burn + 1 mg/kg peptide plus equimolar ferric iron, subcutaneous once daily
[8] = burn + 1 mg/kg peptide days 1-7
[9] = Day 8, after LPS, burn + 1 mg/kg peptide days 1-7

## Oc1c(C(Nc2nc3ccccc3s2)c2ccc(OC(F)F)cc2)ccc2cccnc12 (centres unmarked) [RIG-I agonist [b], reference compound]
THP1-Dual monocytes [1]
  CD169 (AU): 131.6 ± 4.6** AU
A375 cells; RIG-I agonist 4 uM alone (No peptide)
  percent survival of A375 cells, RIG-I ag without peptide: 100.7%

## CC(C)C[C@H](NC(=O)[C@H](Cc1ccc(O)cc1)NC(=O)[C@H](CC(=O)O)NC(=O)[C@H](CCC(=O)O)NC(=O)[C@@H](NC(=O)[C@@H](NC(=O)CNC(=O)[C@@H](N)CCCNC(=N)N)C(C)C)[C@@H](C)O)C(=O)N[C@@H](CCCNC(=N)N)C(=O)N[C@@H](CC(C)C)C(=O)N[C@@H](CCC(=O)O)C(=O)N[C@H](C(=O)N[C@@H](CC(C)C)C(=O)N[C@H](C(=O)N[C@@H](CCC(N)=O)C(=O)N[C@@H](CCCCN)C(=O)N[C@H](C(=O)N[C@H](C(=O)N[C@@H](CO)C(=O)N[C@@H](CCCCN)C(=O)NCC(=O)N[C@@H](Cc1ccccc1)C(=O)N[C@@H](Cc1ccc(O)cc1)C(=O)N[C@@H](CCCCN)C(=O)N[C@@H](CCCCN)C(=O)N[C@@H](CCCCN)C(=O)N[C@@H](CCC(N)=O)C(=O)N[C@@H](CS)C(=O)N[C@@H](CCCNC(=N)N)C(=O)N1CCC[C@H]1C(=O)N[C@@H](CO)C(=O)N[C@@H](CCCCN)C(=O)NCC(=O)N[C@@H](CCCNC(=N)N)C(=O)N[C@@H](CCCCN)C(=O)N[C@@H](CCCNC(=N)N)C(=O)NCC(=O)N[C@@H](Cc1ccccc1)C(=O)N[C@@H](CS)C(=O)N[C@@H](Cc1c[nH]c2ccccc12)C(=O)O)C(C)C)C(C)C)C(C)C)[C@@H](C)O [V-nephrilin] (H-RGVTEDYLRLETLVQKVVSKGFYKKKQCRPSKGRKRGFCW-OH; N-terminus and C-terminus assumed)
[2]; [6]
  Plasma IL-6: 31.4 ± 19 pg/mL
  Plasma albumin mg/ml (24 hr IR): 7.9 ± 2.1 mg/mL
[2]; [7]
  Change in body weight (Pct vs Day 1): −9.8 ± 2.9 Pct
[2]; [8]
  Respiratory distress (Gp. “S” = 100): 349 ± 95
  Wet/dry lung weight (corrected for body weight): 7.97 ± 0.76
[2]; [9]
  BAL His48+ granulocytes (FITC units): 28.9 ± 3.1* FITC units
  BAL fluid IL1-beta: 112.8 ± 9.4 pg/mL
  Plasma OHDG: 1.44 ± 1.0 ng/mL
  Plasma creatinine: 0.91 ± 0.3 mg/dL
[3]; 2 μg/ml protease
  remaining at 20 min: 79 ± 0.7%
[3]; 8 μg/ml protease
  remaining at 20 min: 57.6 ± 2.3%

## (rg108)-KKGFYKKKQCRPSKGRKRGFCW (RG108-KKGFYKKKQCRPSKGRKRGFCW; cysteine pairing not given here) [imm3rg8, imm3 N-terminally conjugated with RG108]
A375 cells; peptide 2 uM plus RIG-I agonist 4 uM
  percent survival of A375 cells, +RIG-I ag: 105.8%
A375 cells; peptide 2 uM, no RIG-I agonist
  percent survival of A375 cells, Buffer: 89.9** percent

## KKGFYKKKQCRPSKGRKRGFCWRVD [immX3RVD]
[4]
  Ferric iron binding, fluorescence standardized to immX3AVD control peptide (100), Avg ± SD: 97.5 ± 5.1
THP1-Dual monocytes [5]; culture supernatant
  CCL22: 272.5 ± 35.7 pg/mL
THP1-Dual monocytes [5]; relative to immX3AVD = 100
  CD169+ (AU): 88.1 ± 4.2 AU

## RGVTEDYLRLETLVQKVVSKGFYKKKQCRPSKGRKRGFCWAVD (cysteines drawn unpaired) [sV-nephrilin]
[2]; [6]
  Plasma IL-6 (pg/ml): 17.5 ± 9.3* pg/ml
  Plasma albumin mg/ml (24 hr IR): 7.4 ± 1.6* mg/ml
[2]; [7]
  Change in body weight (Pct vs Day 1): −5.1 ± 3.6* Pct
[2]; [8]
  Respiratory distress (Gp. “S” = 100): 203 ± 30*#
  Wet/dry lung weight (corrected for body weight): 7.07 ± 0.48*
[2]; [9]
  BAL His48+ granulocytes (FITC units): 26.8 ± 4.0* FITC units
  BAL fluid IL1-beta (pg/ml): 67.1 ± 16*# pg/ml
  Plasma OHDG (ng/ml): 1.31 ± 0.6* ng/ml
  Plasma creatinine (mg/dL): 0.73 ± 0.2* mg/dL
[3]; 2 μg/ml protease
  remaining at 20 min: 90.4 ± 3.4%
[3]; 8 μg/ml protease
  remaining at 20 min: 75.1 ± 2.8%

Source: US12410220B2, “Modulation of mammalian cell lineage by synthetic immodulins” (priority 2021, dated 2025)
